In ChEMBL document CHEMBL1909046, “DrugMatrix in vitro pharmacology data”:
Where a SMILES comes first, the peptide text is derived from it. Bridges are numbered along the chain shown (N, C = ends). [ ]: non-standard residue; d: D form. The star is where a group is joined. Threoninol(2S,3R) = C[C@@H](O)[C@H](CO)N*

Experiments:
[1] = biological target: Tyrosine-protein kinase Fyn (Homo sapiens, UniProt P06241); experiment: biochemical; assay type: cell-based, Insect cells;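 note: enzymatic inhibition of Fyn kinase activity measured with Poly(Glu:Tyr) as the phosphorylation substrate; in other assays of this panel Not Active means under 50% inhibition at 10 µM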
Glucocorticoid receptor = biological target: T1, Glucocorticoid receptor (Homo sapiens, UniProt P04150); settings: hela s3; note: in other assays of this panel Not Active means under 50% inhibition at 10 µM
T1 sequence (P04150 whole entry): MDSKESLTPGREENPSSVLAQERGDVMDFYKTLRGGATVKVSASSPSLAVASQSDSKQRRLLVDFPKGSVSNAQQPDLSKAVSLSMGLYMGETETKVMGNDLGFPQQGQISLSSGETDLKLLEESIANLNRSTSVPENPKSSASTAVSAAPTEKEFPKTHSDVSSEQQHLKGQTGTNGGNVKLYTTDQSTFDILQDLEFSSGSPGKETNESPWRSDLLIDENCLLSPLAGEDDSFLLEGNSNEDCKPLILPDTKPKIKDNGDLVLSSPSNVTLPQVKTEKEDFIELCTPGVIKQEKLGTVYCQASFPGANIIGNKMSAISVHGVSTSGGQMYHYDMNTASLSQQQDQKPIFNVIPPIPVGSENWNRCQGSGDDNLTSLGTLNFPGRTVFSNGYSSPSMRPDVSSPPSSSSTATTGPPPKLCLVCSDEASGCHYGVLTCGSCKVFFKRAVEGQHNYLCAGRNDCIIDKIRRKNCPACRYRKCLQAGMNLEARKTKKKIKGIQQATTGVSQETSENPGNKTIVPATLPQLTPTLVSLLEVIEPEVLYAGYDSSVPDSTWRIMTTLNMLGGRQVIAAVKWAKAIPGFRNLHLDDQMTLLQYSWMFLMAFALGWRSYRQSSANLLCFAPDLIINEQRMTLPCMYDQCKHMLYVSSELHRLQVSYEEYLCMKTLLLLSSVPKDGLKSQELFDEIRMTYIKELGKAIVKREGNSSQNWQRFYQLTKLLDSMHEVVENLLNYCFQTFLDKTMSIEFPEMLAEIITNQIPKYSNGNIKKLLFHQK

D(4) dopamine receptor = biological target: T2, D(4) dopamine receptor (Homo sapiens, UniProt P21917); experiment: DRUGMATRIX: Dopamine D4.2 radioligand binding (ligand: [3H] Spiperone); assay type: cell membranes, Membrane; settings: cho-k1; Not Active = under 50% inhibition at 10 µM
T2 sequence (P21917 whole entry): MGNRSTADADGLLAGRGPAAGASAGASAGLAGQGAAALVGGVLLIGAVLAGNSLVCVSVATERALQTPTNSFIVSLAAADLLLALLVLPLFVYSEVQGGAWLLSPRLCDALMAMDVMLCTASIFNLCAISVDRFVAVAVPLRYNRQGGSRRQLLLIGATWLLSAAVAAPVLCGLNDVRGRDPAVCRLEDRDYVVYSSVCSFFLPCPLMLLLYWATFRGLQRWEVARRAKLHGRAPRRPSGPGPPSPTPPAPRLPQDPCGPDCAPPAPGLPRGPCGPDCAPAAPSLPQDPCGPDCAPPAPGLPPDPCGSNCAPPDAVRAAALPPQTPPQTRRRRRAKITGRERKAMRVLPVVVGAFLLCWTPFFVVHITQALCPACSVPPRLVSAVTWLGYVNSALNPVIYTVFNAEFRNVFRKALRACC

Tyrosine-protein kinase Fyn, sequence (P06241 whole entry): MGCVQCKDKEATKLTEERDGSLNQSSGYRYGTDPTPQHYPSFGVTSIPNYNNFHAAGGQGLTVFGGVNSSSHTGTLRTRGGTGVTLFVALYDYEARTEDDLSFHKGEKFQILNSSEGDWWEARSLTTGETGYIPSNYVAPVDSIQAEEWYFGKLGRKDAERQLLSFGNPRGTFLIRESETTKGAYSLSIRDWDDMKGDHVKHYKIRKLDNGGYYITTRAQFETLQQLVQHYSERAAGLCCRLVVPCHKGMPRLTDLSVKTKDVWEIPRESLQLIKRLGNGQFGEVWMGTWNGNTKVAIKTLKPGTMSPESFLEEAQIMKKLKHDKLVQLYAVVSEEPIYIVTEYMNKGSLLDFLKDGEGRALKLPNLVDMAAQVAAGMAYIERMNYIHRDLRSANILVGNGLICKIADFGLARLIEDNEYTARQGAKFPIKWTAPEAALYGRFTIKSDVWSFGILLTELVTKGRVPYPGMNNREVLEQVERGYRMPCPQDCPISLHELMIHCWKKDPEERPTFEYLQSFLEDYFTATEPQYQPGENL

| SMILES | IC50 ([1]; insect cells) | IC50 (Glucocorticoid receptor) | IC50 (D(4) dopamine receptor) | IC50 [1] [µM] | IC50 ([1]; read-out: IC50) [µM] |
| --- | --- | --- | --- | --- | --- |
| O=C1CC[C@H](N2C(=O)c3ccccc3C2=O)C(=O)N1 | Not Active | Not Active | Not Active | – | – |
| C[C@@H](O)[C@H](CO)NC(=O)[C@@H]1CSSC[C@H](NC(=O)[C@H](N)Cc2ccccc2)C(=O)N[C@@H](Cc2ccccc2)C(=O)N[C@H](Cc2c[nH]c3ccccc23)C(=O)N[C@@H](CCCCN)C(=O)N[C@@H]([C@@H](C)O)C(=O)N1 (H-[dF]CF[dW]KTC-{Threoninol(2S,3R)}; disulfide 2-7) | Not Active | Not Active | Not Active | – | – |
| CCCC(=O)Nc1ccc(OCC(O)CNC(C)C)c(C(C)=O)c1 (configuration not stated) [ACEBUTOLOL] | Not Active | Not Active | Not Active | – | – |
| N=C(N)NC(=O)c1nc(Cl)c(N)nc1N [AMILORIDE] | Not Active | Not Active | Not Active | – | – |
| CN1C(=O)COc2c(C(=O)NC3CN4CCC3CC4)cc(Cl)cc21 (configuration not stated) [AZASETRON] | Not Active | – | Not Active | – | – |
| C[C@H]1C[C@H]2[C@@H]3CCC4=CC(=O)C=C[C@]4(C)[C@@]3(Cl)[C@@H](O)C[C@]2(C)[C@@]1(O)C(=O)CO [BECLOMETHASONE] | Not Active | – | Not Active | – | – |
| CCOC(=O)[C@H](CCc1ccccc1)N[C@H]1CCc2ccccc2N(CC(=O)O)C1=O [BENAZEPRIL] | Not Active | Not Active | Not Active | – | – |
| Nc1c(CC(=O)O)cccc1C(=O)c1ccc(Br)cc1 [BROMFENAC] | Not Active | – | Not Active | – | – |
| C[C@@]12C(=O)OC(=O)[C@]1(C)[C@H]1CC[C@@H]2O1 [CANTHARIDIN] | Not Active | Not Active | Not Active | – | – |
| CC1=C(C(=O)O)N2C(=O)[C@@H](NC(=O)[C@H](N)c3ccccc3)[C@H]2SC1 [CEPHALEXIN ANHYDROUS] | Not Active | Not Active | Not Active | – | – |
| O=C(N[C@H](CO)[C@H](O)c1ccc([N+](=O)[O-])cc1)C(Cl)Cl [CHLORAMPHENICOL] | Not Active | – | Not Active | – | – |
| ClC(Cl)Cl [CHLOROFORM] | Not Active | Not Active | Not Active | – | – |
| C=C1CC[C@H](O)C/C1=C/C=C1\CCC[C@]2(C)[C@@H]([C@H](C)CCCC(C)C)CC[C@@H]12 [CHOLECALCIFEROL] | Not Active | Not Active | Not Active | – | – |
| C[N+](C)(C)CCO.[Cl-] [CHOLINE CHLORIDE] | Not Active | – | Not Active | – | – |
| CCOC(=O)C(C)(C)Oc1ccc(Cl)cc1 [CLOFIBRATE] | Not Active | Not Active | Not Active | – | – |
| O=c1ccc2ccccc2o1 [COUMARIN] | Not Active | – | Not Active | – | – |
| C[C@@H]1C[C@@H]([C@H](O)CC2CC(=O)NC(=O)C2)C(=O)[C@@H](C)C1 [CYCLOHEXIMIDE] | Not Active | – | Not Active | – | – |
| C/C=C/C[C@@H](C)[C@@H](O)[C@H]1C(=O)N[C@@H](CC)C(=O)N(C)CC(=O)N(C)[C@@H](CC(C)C)C(=O)N[C@@H](C(C)C)C(=O)N(C)[C@@H](CC(C)C)C(=O)N[C@@H](C)C(=O)N[C@H](C)C(=O)N(C)[C@@H](CC(C)C)C(=O)N(C)[C@@H](CC(C)C)C(=O)N(C)[C@@H](C(C)C)C(=O)N1C [CYCLOSPORINE] | Not Active | – | Not Active | – | – |
| CN(C)/N=N/c1[nH]cnc1C(N)=O [DACARBAZINE] | Not Active | Not Active | Not Active | – | – |
| COc1ccc2c(c1)[C@]13CCCC[C@@H]1[C@H](C2)N(C)CC3 [DEXTROMETHORPHAN] | Not Active | Not Active | Not Active | – | – |
| CC(=O)Nc1c(I)c(NC(C)=O)c(I)c(C(=O)O)c1I [DIATRIZOIC ACID] | Not Active | Not Active | Not Active | – | – |
| COP(=O)(OC)OC=C(Cl)Cl [DICHLORVOS] | Not Active | – | Not Active | – | – |
| COc1cccc2c1C(=O)c1c(O)c3c(c(O)c1C2=O)C[C@@](O)(C(=O)CO)C[C@@H]3O[C@H]1C[C@H](N)[C@H](O)[C@H](C)O1 [DOXORUBICIN] | – | Not Active | Not Active | 5.15 | – |
| COc1cccc2c1C(=O)c1c(O)c3c(c(O)c1C2=O)C[C@@](O)(C(=O)CO)C[C@@H]3O[C@H]1C[C@H](N)[C@@H](O)[C@H](C)O1 [EPIRUBICIN] | – | Not Active | Not Active | – | 5.18 |
| C[C@]12CC[C@@H]3c4ccc(O)cc4CC[C@H]3[C@@H]1CC[C@@H]2O [ESTRADIOL] | Not Active | – | Not Active | – | – |
| CC[C@@H](CO)NCCN[C@@H](CC)CO [ETHAMBUTOL] | Not Active | – | Not Active | – | – |

| SMILES | IC50 ([1]; insect cells) | IC50 (Glucocorticoid receptor) | IC50 (D(4) dopamine receptor) | IC50 [1] [µM] | IC50 ([1]; read-out: IC50) [µM] |
| --- | --- | --- | --- | --- | --- |
| Cc1ccc(S(=O)(=O)NC(=O)NN2CC3CCCC3C2)cc1 (configuration not stated) [GLICLAZIDE] | Not Active | – | Not Active | – | – |
| NC(=O)NO [HYDROXYUREA] | Not Active | Not Active | Not Active | – | – |
| CC(C)Cc1ccc(C(C)C(=O)O)cc1 (configuration not stated) [IBUPROFEN] | Not Active | Not Active | Not Active | – | – |
| CCc1c2c(nc3ccc(OC(=O)N4CCC(N5CCCCC5)CC4)cc13)-c1cc3c(c(=O)n1C2)COC(=O)[C@]3(O)CC [IRINOTECAN] | Not Active | Not Active | Not Active | – | – |
| CC(C(=O)O)c1cccc(C(=O)c2ccccc2)c1 (configuration not stated) [KETOPROFEN] | Not Active | – | Not Active | – | – |
| Nc1ccn([C@@H]2CS[C@H](CO)O2)c(=O)n1 [LAMIVUDINE] | Not Active | Not Active | Not Active | – | – |
| O=S(=O)([O-])CCS.[Na+] [MESNA] | Not Active | Not Active | Not Active | – | – |
| C#C[C@]1(O)CC[C@H]2[C@@H]3CCc4cc(OC)ccc4[C@H]3CC[C@@]21C [MESTRANOL] | Not Active | Not Active | Not Active | – | – |
| CC(=O)Nc1cccc(O)c1 [METACETAMOL] | Not Active | – | Not Active | – | – |
| Cc1ncc([N+](=O)[O-])n1CCO [METRONIDAZOLE] | Not Active | – | Not Active | – | – |
| CC(C)(C(=O)c1cccnc1)c1cccnc1 [METYRAPONE] | Not Active | Not Active | Not Active | – | – |
| COc1ccc2cc([C@H](C)C(=O)O)ccc2c1 [NAPROXEN] | Not Active | – | Not Active | – | – |
| CC(C)[C@H]1CC[C@H](C(=O)N[C@H](Cc2ccccc2)C(=O)O)CC1 [NATEGLINIDE] | Not Active | Not Active | Not Active | – | – |
| CCN[C@@H]1C[C@H](N)[C@@H](O[C@H]2OC(CN)=CC[C@H]2N)[C@H](O)[C@H]1O[C@H]1OC[C@](C)(O)[C@H](NC)[C@H]1O [NETILMICIN] | Not Active | – | Not Active | – | – |
| COC(=O)C1=C(C)NC(C)=C(C(=O)OCC(C)C)C1c1ccccc1[N+](=O)[O-] (configuration not stated) [NISOLDIPINE] | Not Active | Not Active | Not Active | – | – |
| COc1ccc2[nH]c([S+]([O-])Cc3ncc(C)c(OC)c3C)nc2c1 (configuration not stated) [OMEPRAZOLE] | Not Active | – | Not Active | – | – |
| Cc1nccn1CC1CCc2c(c3ccccc3n2C)C1=O (configuration not stated) [ONDANSETRON] | Not Active | Not Active | Not Active | – | – |
| CCn1cc(C(=O)O)c(=O)c2cc(F)c(N3CCN(C)CC3)cc21 [PEFLOXACIN] | Not Active | Not Active | Not Active | – | – |
| CCCCOc1ccc(OCCCN2CCOCC2)cc1 [PRAMOXINE] | Not Active | – | Not Active | – | – |
| O=C(C1CCCCC1)N1CC(=O)N2CCc3ccccc3C2C1 (configuration not stated) [PRAZIQUANTEL] | Not Active | Not Active | Not Active | – | – |
| CCN(CC)CCOC(=O)c1ccc(N)cc1 [PROCAINE] | Not Active | – | Not Active | – | – |
| CCCN(CCC)C(=O)C(CCC(=O)O)NC(=O)c1ccccc1 (configuration not stated) [PROGLUMIDE] | Not Active | Not Active | Not Active | – | – |
| NC(=O)c1cnccn1 [PYRAZINAMIDE] | Not Active | Not Active | Not Active | – | – |
| Cc1cc2cc3c(C)cc(=O)oc3c(C)c2o1 [TRIOXSALEN] | Not Active | – | Not Active | – | – |
| CCCC(CCC)C(=O)O [VALPROIC ACID] | Not Active | Not Active | Not Active | – | – |
